Test results reported in patent publication US12049455B2, “Compositions and methods for the prevention and/or treatment of mitochondrial disease, including Friedreich's ataxia” (Stealth BioTherapeutics Inc., priority 2019, dated 2024).

Key:
Nrf-2 = Nrf-2 Activation Assay (Nrf-2 Assay); format: cell-based, human; conditions: 1 μM compound, 24 hours
Experimental: This assay was developed internally and was designed to determine if the novel test compounds disclosed herein active Nrf-2 and thereby promote resolution of inflammation by the mechanism believed to be responsible for the activity of omaveloxolone.
Briefly, GM03665 Friedreich Ataxia patient fibroblasts were grown in 12 Well Plates (TC Cell+F) (Sarstedt, Numbrecht Germany), at a density of […] in DMEM/F12 (Gibco, ThermoFisher Scientific, Waltham, MA, USA) cell media supplemented with 10% FBS and 1% Pen/Strep. Cells were left to rest overnight at 37° C. in a humidified atmosphere with 5% CO2 to allow attachment of the cells to the culture plate. Before continuing assay visual inspection of each well was done by light microscopy to detect any possible bacterial and fungal contamination. […] After incubation, cell media was removed and total RNA from the cells was isolated using E.Z.N.A.® Total RNA Kit I (Omega Bio-tek, Norcross, Georgia, USA) spin columns, and first-strand cDNA synthesis was carried out using a High Capacity cDNA Reverse Transcription Kit (Applied Biosystems™, Foster City, CA) following the manufacturer's instructions. qPCR analysis of gene expression was performed by mixing SYBR® Green Master Mix (Applied Biosystems™) with synthesized cDNA and forward and reverse primers. […] (60 cycles), and 95° C. for 60 seconds, followed by melt curve analysis at 72-95° C., 0.3° C./sec. The relative expression levels for each gene were calculated with the ΔΔCt method and normalized to the expression of REEP5 and SNRPD3 genes.

[1] = system: frataxin deficient fibroblasts (GM03665); format: cell-based; conditions: summary of Table 7
GM03665 cells = experiment: RSL3 Toxicity Assay (RSL3 Assay); format: cell-based, human; conditions: protection of Friedreich's ataxia fibroblasts from RSL3
Experimental: In brief, GM03665 cells (Coriell Institute) were seeded in 96-well plates (Sarstedt) in DMEM cell culture media containing 10% Fetal Bovine serum and 1% Penicillin-Streptomycin (Pen-Strep) antibiotic mix at the amount of 2×10^4/mL (100 μL or 2×10^3 cells per well). Cells were left to rest overnight at 37° C. in a humidified atmosphere with 5% CO2 to allow attachment of the cells to the culture plate. Test compounds were prepared as DMSO stocks (10 mM) and were serially diluted in cell culture media to obtain 2× working solutions. Cell media was discarded and replaced by 50 μL of test compound solutions or cell media with vehicle for control wells. Within 15 minutes, 2× working solution (4 μM) of 1S,3R-RSL3 (CAS #1219810-16-8, Sigma-Aldrich) (diluted from 5 mM DMSO stock in cell culture media) was added. Final reaction volume was 100 μL and final DMSO concentration in reaction was kept below 0.2% (v/v) and equal in all wells. Final RSL3 concentration was 2 μM and test compound final concentrations in reaction were up to 1000 nM. After 24 hours of incubation cell viability was assessed by MTT test. MTT (Sigma-Aldrich) solution 1 mg/mL in 1×PBS (pH=7,4) was prepared 1 hour before the assay and filtered through Filtropur S 0.2 filters (Sarstedt). […] Absorption at 570 and 650 nm was measured using Hidex Sense microplate reader.

HepG2 cells = experiment: Rotenone Oxygraph Assay (high-resolution respirometry of intact HepG2 cells); format: cell-based, human; conditions: for active in Complex I by-pass (in words): summary of Table 7 (Rotenone ATP and Rotenone Oxygraph assays)
Experimental: The Oxygraph-2 k (O2k, OROBOROS INSTRUMENTS, Austria) was used for measurements of respiration of intact cells. The respirometry was performed in Dulbecco's Modified Eagle Medium (DMEM) high glucose without supplements. All experiments were performed at 37° C.
HepG2 cells (ATCC collection code HB-8065™) were cultured in 10 cm^2 culture dishes in DMEM high glucose medium supplemented with 10% fetal bovine serum (FBS) and 100 units/mL penicillin and 100 μg/mL streptomycin until approximately 90% confluence was reached. Immediately prior to performing the respirometric assay, the cells were washed with media without FBS, trypsinized and resuspended in DMEM high glucose without FBS.
The final concentration of intact cells in the O2k-chamber was 0.5·10^6/mL. After stabilization of respiration, the Complex I inhibitor, rotenone, at 1 μM final concentration was added to inhibit electron flux via Complex I. Then, compound to be tested was added at 10 μM final concentration, and the change in respiration rate of intact cells was monitored.

Compound	activation of Nrf-2 responsive genes (in words, FIG. 7) (Nrf-2)	activity in the BSO assay (in words) [1]	activity in the RSL3 Assay (in words) (GM03665 cells)	Rotenone Oxygraph Assay % Increase (Table 7) (HepG2 cells; intact HepG2 cells, rotenone 1 μM, compound 10 μM)	Percent increase in ATP (Rotenone Oxygraph Assay, Table 4) (HepG2 cells; intact HepG2 cells, rotenone 1 μM, compound 10 μM, change in respiration rate)	active in Complex I by-pass (in words) (HepG2 cells)	Nrf-2 Assay (Table 7) (Nrf-2; GM03665 fibroblasts, qPCR of Nrf-2 responsive genes)
CC1=C(C)C(=O)C(CC[C@](C)(O)CC/C=C(\C)CC/C=C(\C)CCC=C2COC2)=C(C)C1=O [Compound E, 2-((R,6E,10E)-3-hydroxy-3,7,11-trimethyl-14-(oxetan-3-ylidene)tetradeca-6,10-dien-1-yl)-3,5,6-trimethylcyclohexa-2,5-diene-1,4-dione]	do not activate						
COC1=C(OC)C(=O)C(CCCCCCCCCCO)=C(C)C1=O [Idebenone, reference compound]		very weakly active/borderline inactive					
(R)-2-(3-hydroxy-3-methyl-4-(3-(trimethylsilyl)propoxy)butyl)-3,5,6-trimethylcyclohexa-2,5-diene-1,4-dione [Compound M]	do not activate	active	active	56.6 +/− 11.3%	56.6 +/− 11.3%	active	Inactive
CC1(C)CC[C@]2(NC(=O)C(C)(F)F)CC[C@]3(C)[C@H](C(=O)C=C4[C@@]5(C)C=C(C#N)C(=O)C(C)(C)[C@@H]5CC[C@]43C)[C@@H]2C1 [Omaveloxolone, reference compound]	positive		completely inactive			are not	
